Reference: ChEMBL document CHEMBL1201862, “PubChem BioAssay data set” (2004)
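Results reflect a 48-hour exposure of cells in 96-well plates to compound at five concentrations. The concentration for 50% growth inhibition is given as GI50.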 Active and inactive are the calls of the source. Rule as the data show it: active = GI50 up to about 1.1 µM and inactive = higher.

What was measured:
Test in all cases: NCI tumour cell line growth inhibition, 48 h
DLD-1 = tested on: DLD-1
DMS-114 = tested on: DMS-114
DMS-273 = tested on: DMS-273
HOP-18 = tested on: HOP-18
M19-MEL = tested on: M19-MEL
SNB-78 = tested on: SNB-78
XF498 = tested on: XF498
LXFL 529 = tested on: LXFL 529
RXF 631 = tested on: RXF 631

Compound	GI50 (DLD-1)	GI50 (DMS-114)	GI50 (DMS-273)	GI50 (HOP-18)	GI50 (M19-MEL)	GI50 (SNB-78)	GI50 (XF498)	GI50 (LXFL 529)	GI50 (RXF 631)
COc1ccc(C2c3cc4c(cc3OC(O)(CO)C2C(=O)O)OCO4)c(OC)c1OC.COc1ccc(C2c3cc4c(cc3OC3(O)COC(=O)C23)OCO4)c(OC)c1OC (stereo unspecified)	> 100 µM (inactive)	> 100 µM (inactive)	> 100 µM (inactive)	> 100 µM (inactive)	> 100 µM (inactive)	59.2 µM (inactive)	> 100 µM (inactive)		
CCOC(=O)C1=C(C(=O)OCC)C2c3ccccc3C=CN2C(C(=O)OCC)=C(SC)S1 (stereo unspecified)	> 100 µM (inactive)	52.5 µM (inactive)	63.1 µM (inactive)		> 100 µM (inactive)	79.1 µM (inactive)		51.2 µM (inactive)	
Cc1ns/c(=N\C(=S)N(C)C)n1C	> 100 µM (inactive)	> 100 µM (inactive)	> 100 µM (inactive)	> 100 µM (inactive)		> 100 µM (inactive)	> 100 µM (inactive)	> 100 µM (inactive)	> 100 µM (inactive)
CC(C)(C)c1cc(Cc2ccc([N+](C)(C)C)cc2)c(O)c(C(C)(C)C)c1	45.4 µM (inactive)	7.19 µM (inactive)	9.64 µM (inactive)	20.1 µM (inactive)	12.9 µM (inactive)	14.9 µM (inactive)	13 µM (inactive)	13.8 µM (inactive)	45.6 µM (inactive)
Cc1cccc2[n+]1[C@H]1[C@H]([C@@H]3O[C@H]1c1ccccc13)[S+]([O-])N2 (stereo partly specified)	> 100 µM (inactive)	22.7 µM (inactive)	27.2 µM (inactive)	21.2 µM (inactive)	29.9 µM (inactive)	23.3 µM (inactive)	20.2 µM (inactive)	33.7 µM (inactive)	> 100 µM (inactive)
CC(=O)N1C/C(=C\c2ccc(N(C)C)cc2)C(=O)/C(=C/c2ccc(N(C)C)cc2)C1	68.1 µM (inactive)	30.2 µM (inactive)	49.8 µM (inactive)	71.9 µM (inactive)	33.6 µM (inactive)	85.9 µM (inactive)	> 100 µM (inactive)	64 µM (inactive)	55.2 µM (inactive)
NCCCNCCSSCCCCS(=O)O	45.8 µM (inactive)	> 100 µM (inactive)	35.8 µM (inactive)	> 100 µM (inactive)	12.6 µM (inactive)	22.8 µM (inactive)	18.2 µM (inactive)	23 µM (inactive)	> 100 µM (inactive)
Cc1cc(NC(=O)NC(=O)c2ccccc2N(C)C)ccc1Oc1ncc(Br)cn1	0.373 µM (active)	0.219 µM (active)		> 100 µM (inactive)	0.455 µM (active)	1.05 µM (active)	0.288 µM (active)	0.39 µM (active)	
CN(C)C(c1ccccc1)C(O)c1ccccc1 (stereo unspecified)	> 100 µM (inactive)	> 100 µM (inactive)	> 100 µM (inactive)	> 100 µM (inactive)	> 100 µM (inactive)	> 100 µM (inactive)	> 100 µM (inactive)	> 100 µM (inactive)	> 100 µM (inactive)
CC(Oc1ccc2c(=O)cc(-c3ccccc3)oc2c1)C(=O)O (stereo unspecified)	> 100 µM (inactive)	> 100 µM (inactive)		> 100 µM (inactive)	> 100 µM (inactive)	> 100 µM (inactive)	> 100 µM (inactive)	> 100 µM (inactive)	
COc1cc(C2C(C(=O)Nc3ccc([N+](=O)[O-])cc3)=C(C)NC(C)=C2C(=O)Nc2ccc([N+](=O)[O-])cc2)ccc1O	25.6 µM (inactive)	24.1 µM (inactive)	21.9 µM (inactive)	27.6 µM (inactive)	19.3 µM (inactive)	34.8 µM (inactive)	23.8 µM (inactive)	18.3 µM (inactive)	32.5 µM (inactive)
Nc1nc2c(ncn2C2OC(CO)C(O)C2N)c(=O)[nH]1 (stereo unspecified)	> 100 µM (inactive)	> 100 µM (inactive)	> 100 µM (inactive)		> 100 µM (inactive)	> 100 µM (inactive)	> 100 µM (inactive)	> 100 µM (inactive)	79.6 µM (inactive)
COc1ccc(S(=O)(=O)NNS(C)(=O)=O)cc1	87.5 µM (inactive)	> 100 µM (inactive)	> 100 µM (inactive)		> 100 µM (inactive)		60.3 µM (inactive)	> 100 µM (inactive)	> 100 µM (inactive)
Cc1ccc(S(=O)(=O)c2ccc(NC(=O)SCCC(=O)O)cc2)cc1	> 100 µM (inactive)	> 100 µM (inactive)	> 100 µM (inactive)			> 100 µM (inactive)		> 100 µM (inactive)	
CC(=O)Nc1ccc(-c2nnc(SCC(=O)Nc3ccc(C)cc3)o2)cc1	14.9 µM (inactive)	14.8 µM (inactive)	15.9 µM (inactive)	17.4 µM (inactive)	17.6 µM (inactive)	16.6 µM (inactive)		16.3 µM (inactive)	
Cc1ccc(C)c(NC(=O)CCc2nnc(S)[nH]2)c1	54.1 µM (inactive)	28.7 µM (inactive)	> 100 µM (inactive)	> 100 µM (inactive)	> 100 µM (inactive)	> 100 µM (inactive)	> 100 µM (inactive)	> 100 µM (inactive)	> 100 µM (inactive)
Cn1ncc2c(c1=O)Nc1ccccc1S2(=O)=O	> 100 µM (inactive)	22 µM (inactive)	> 100 µM (inactive)	> 100 µM (inactive)	> 100 µM (inactive)	> 100 µM (inactive)		80.4 µM (inactive)	
Cc1cccc(C)c1NC(=O)C(=O)CC(=O)c1cccc([N+](=O)[O-])c1	> 100 µM (inactive)		> 100 µM (inactive)	> 100 µM (inactive)	> 100 µM (inactive)	> 100 µM (inactive)	> 100 µM (inactive)	> 100 µM (inactive)	
N#C/C(=C\c1cc2ccccc2c2ccccc12)c1ccccc1	5.6 µM (inactive)		3.05 µM (inactive)	18.7 µM (inactive)	7.29 µM (inactive)	4.06 µM (inactive)	3.22 µM (inactive)	14.4 µM (inactive)	
O=C(N/N=C(/c1nc2ccc(Cl)cc2[nH]c1=O)C(O)c1ccc(Cl)cc1Cl)c1ccncc1 (stereo unspecified)	> 100 µM (inactive)	> 100 µM (inactive)	> 100 µM (inactive)		> 100 µM (inactive)	> 100 µM (inactive)		> 100 µM (inactive)	> 100 µM (inactive)
Brc1ccc(/C=N/C23CC4CC(CC(C4)C2)C3)cc1	> 100 µM (inactive)	> 100 µM (inactive)	> 100 µM (inactive)	> 100 µM (inactive)	> 100 µM (inactive)	> 100 µM (inactive)	> 100 µM (inactive)	> 100 µM (inactive)	> 100 µM (inactive)
O=C1/C(=C/c2ccc(Cl)cc2)CNC/C1=C\c1ccc(Cl)cc1	2.38 µM (inactive)		1.98 µM (inactive)	4.89 µM (inactive)	2.1 µM (inactive)	2.65 µM (inactive)	2.83 µM (inactive)	1.09 µM (active)	2.79 µM (inactive)
NC(=S)N/N=C(\C(=O)Nc1cccc([N+](=O)[O-])c1)c1nc2ccc([N+](=O)[O-])cc2nc1O	42 µM (inactive)	20.7 µM (inactive)	44.4 µM (inactive)	15 µM (inactive)	> 100 µM (inactive)		36.1 µM (inactive)	71.1 µM (inactive)	> 100 µM (inactive)
N#C/C(=C\c1c[nH]c2ccccc12)C(=O)c1ccc(O)c(O)c1	47.9 µM (inactive)		36.2 µM (inactive)	38.5 µM (inactive)	83.2 µM (inactive)		48.8 µM (inactive)	39.4 µM (inactive)	
COc1ccc([C@@H]2OC(=O)C3C2C(=O)O[C@H]3c2ccc(OC)c(OC)c2)cc1OC (stereo partly specified)		> 100 µM (inactive)	> 100 µM (inactive)	> 100 µM (inactive)	> 100 µM (inactive)	> 100 µM (inactive)	> 100 µM (inactive)		> 100 µM (inactive)
